Experimental data reported in ChEMBL document CHEMBL1129258, “Synthesis and structure-activity relationships of 2-pyridones: a novel series of potent DNA gyrase inhibitors as antibacterial agents” (J Med Chem, 1996).
Values after ≈ are worked out from the molar mass of the structure shown.

Legend:
[1] = molecular target: T1, DNA gyrase (Staphylococcus aureus) (UniProt P0A0K8+P20831); assay: In vitro antibacterial activity against gram-positive organism Staphylococcus aureus NCTC-10649M; format: functional
[2] = In vitro antibacterial activity against gram-negative organism Pseudomonas aeruginosa 5007; format: functional
[3] = molecular target: T2, DNA gyrase (Escherichia coli) (UniProt P0AES6+P0AES4); assay: In vitro antibacterial activity against gram-negative organism Klebsiella pneumoniae ATCC 8045; format: functional
[4] = molecular target: T2, DNA gyrase (Escherichia coli); assay: In vitro antibacterial against gram-negative organism Escherichia coli JUHL; format: functional; conditions: Escherichia coli K-12
[5] = molecular target: T2, DNA gyrase (Escherichia coli); assay: In vitro antibacterial activity against gram-positive organism Streptococcus bovis A-5169; format: functional; conditions: Streptococcus equinus
[6] = molecular target: T2, DNA gyrase (Escherichia coli); assay: In vitro antibacterial activity against gram-negative organism Prov. stuartii CMX-640; format: functional; conditions: Providencia stuartii
[7] = molecular target: T2, DNA gyrase (Escherichia coli); assay: In vitro antibacterial activity against gram-positive organism Enterococcus faecium ATCC 8043; format: functional
[8] = molecular target: T1, DNA gyrase (Staphylococcus aureus); assay: In vitro antibacterial activity against gram-positive organism Staphylococcus aureus 1775; format: functional
[9] = molecular target: T2, DNA gyrase (Escherichia coli); assay: In vitro antibacterial activity against gram-negative organism […] ATCC 13048; format: functional; conditions: Enterobacter aerogenes
[10] = In vitro antibacterial activity against gram-negative organism Pseudomonas aeruginosa DPHD-2862; format: functional; conditions: Pseudomonas aeruginosa; read-out: MIC
[11] = molecular target: T1, DNA gyrase (Staphylococcus aureus); assay: In vitro antibacterial activity against gram-positive organism Staphylococcus aureus ATCC 6538p; format: functional
Streptococcus pyogenes = assay: In vitro antibacterial activity against gram-positive organism Streptococcus pyogenes EES61; format: functional; conditions: Streptococcus pyogenes; read-out: MIC
[12] = molecular target: T2, DNA gyrase (Escherichia coli); conditions: Escherichia coli K-12
Description: Concentration which causes 50% of the gyrase (Escherichia coli H560)-mediated maximal DNA cleavage.

[13] = Pseudomonas aeruginosa, read-out: MIC

T1 sequence (P0A0K8 2-644 limits assumed): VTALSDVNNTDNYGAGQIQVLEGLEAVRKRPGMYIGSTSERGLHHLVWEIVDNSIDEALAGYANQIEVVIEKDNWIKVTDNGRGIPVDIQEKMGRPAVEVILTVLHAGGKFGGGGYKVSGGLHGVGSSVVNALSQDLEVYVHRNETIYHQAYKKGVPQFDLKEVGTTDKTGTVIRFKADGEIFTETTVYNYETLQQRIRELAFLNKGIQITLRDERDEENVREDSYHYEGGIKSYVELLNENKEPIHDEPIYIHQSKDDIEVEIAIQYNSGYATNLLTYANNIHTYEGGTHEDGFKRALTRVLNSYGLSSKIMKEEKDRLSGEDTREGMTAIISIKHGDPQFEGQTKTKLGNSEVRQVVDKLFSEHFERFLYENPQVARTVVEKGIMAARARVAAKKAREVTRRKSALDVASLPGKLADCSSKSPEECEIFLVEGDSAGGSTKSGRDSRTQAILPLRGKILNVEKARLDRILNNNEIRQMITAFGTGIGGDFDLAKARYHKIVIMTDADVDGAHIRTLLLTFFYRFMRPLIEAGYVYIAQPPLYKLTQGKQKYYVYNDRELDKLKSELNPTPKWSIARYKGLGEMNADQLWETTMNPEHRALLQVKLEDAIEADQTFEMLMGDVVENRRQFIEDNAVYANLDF
T1 sequence (P20831 whole entry partner): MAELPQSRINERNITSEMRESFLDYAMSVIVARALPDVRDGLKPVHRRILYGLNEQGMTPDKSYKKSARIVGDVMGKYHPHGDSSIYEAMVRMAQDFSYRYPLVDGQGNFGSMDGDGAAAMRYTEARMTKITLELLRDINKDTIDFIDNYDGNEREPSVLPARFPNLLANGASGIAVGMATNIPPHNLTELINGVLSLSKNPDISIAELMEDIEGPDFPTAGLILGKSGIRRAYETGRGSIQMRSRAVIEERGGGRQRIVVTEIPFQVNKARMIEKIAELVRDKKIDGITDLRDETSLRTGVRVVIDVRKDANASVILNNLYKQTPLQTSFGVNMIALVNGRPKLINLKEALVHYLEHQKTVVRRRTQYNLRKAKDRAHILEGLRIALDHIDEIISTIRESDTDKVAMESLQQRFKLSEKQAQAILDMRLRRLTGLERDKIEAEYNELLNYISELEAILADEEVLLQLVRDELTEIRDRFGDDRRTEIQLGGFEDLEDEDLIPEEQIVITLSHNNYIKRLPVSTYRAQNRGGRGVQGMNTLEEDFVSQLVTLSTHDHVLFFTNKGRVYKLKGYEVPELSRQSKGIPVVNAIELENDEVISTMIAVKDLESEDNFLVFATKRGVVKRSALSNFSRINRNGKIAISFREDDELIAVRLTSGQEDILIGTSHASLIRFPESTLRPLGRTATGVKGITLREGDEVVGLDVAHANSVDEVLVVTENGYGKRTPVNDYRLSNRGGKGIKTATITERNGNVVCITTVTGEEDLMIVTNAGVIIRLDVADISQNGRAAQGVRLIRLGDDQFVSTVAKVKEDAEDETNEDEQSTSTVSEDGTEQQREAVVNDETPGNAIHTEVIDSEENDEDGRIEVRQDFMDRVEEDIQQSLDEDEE

| Structure (SMILES) | MIC [1] [µg/mL] | MIC [2, 13] [µg/mL] | MIC [3] [µg/mL] | MIC [4] [µg/mL] | MIC [5] [µg/mL] | MIC [6] | MIC [7] [µg/mL] | MIC [8] [µg/mL] | MIC [9] [µg/mL] | MIC [10] [µg/mL] | MIC [11] [µg/mL] | MIC (Streptococcus pyogenes) [µg/mL] | MIC [2] [pug ml-1] | CC50 [12] [µg/mL] |
| --- | --- | --- | --- | --- | --- | --- | --- | --- | --- | --- | --- | --- | --- | --- |
| CO[C@@H]1CN(c2c(F)cn3c(=O)c(C(=O)O)cc(C4CC4)c3c2C)C[C@H]1N | 0.05 (≈ 0.133 µM) | 1.56 (≈ 4.16 µM) | 0.05 (≈ 0.133 µM) | 0.05 (≈ 0.133 µM) | 0.39 (≈ 1.04 µM) | 3.1 µg/mL (≈ 8.26 µM) | 0.39 (≈ 1.04 µM) | 3.1 (≈ 8.26 µM) | 0.2 (≈ 0.533 µM) | 25 (≈ 66.6 µM) | 0.05 (≈ 0.133 µM) | 0.39 (≈ 1.04 µM) | – | – |
| Cc1c(N2C[C@H]3CCC[C@H](N)[C@H]3C2)c(F)cn2c(=O)c(C(=O)O)cc(C3CC3)c12 | 0.005 (≈ 0.0125 µM) | – | 0.02 (≈ 0.0501 µM) | 0.02 (≈ 0.0501 µM) | 0.01 (≈ 0.025 µM) | 0.78 µg/mL (≈ 1.95 µM) | 0.02 (≈ 0.0501 µM) | 0.39 (≈ 0.976 µM) | 0.1 (≈ 0.25 µM) | 6.2 (≈ 15.5 µM) | 0.005 (≈ 0.0125 µM) | 0.02 (≈ 0.0501 µM) | 0.39 | 0.3 (≈ 0.751 µM) |
| NC1CCN(c2nc3c(-c4c(F)c(F)c(F)c(F)c4F)cc(C(=O)O)c(=O)n3cc2F)C1 (stereo not drawn) | 50 (≈ 109 µM) | 50 (≈ 109 µM) | 3.1 (≈ 6.76 µM) | 6.2 (≈ 13.5 µM) | > 100 | > 100 pug ml-1 | > 100 | > 100 | 6.2 (≈ 13.5 µM) | > 100 | 50 (≈ 109 µM) | > 100 | – | 12.5 (≈ 27.3 µM) |
| Cc1c(N(C)CCN)c(F)cn2c(=O)c(C(=O)O)cc(C3CC3)c12 | 1.56 (≈ 4.68 µM) | 6.2 (≈ 18.6 µM) | 0.2 (≈ 0.6 µM) | 0.78 (≈ 2.34 µM) | 12.5 (≈ 37.5 µM) | 25 µg/mL (≈ 75 µM) | 3.1 (≈ 9.3 µM) | > 100 | 1.56 (≈ 4.68 µM) | > 100 | 1.56 (≈ 4.68 µM) | 12.5 (≈ 37.5 µM) | – | – |
| O=C(O)c1cc(C2CC2)c2nc(N3CCOCC3)c(F)cn2c1=O | 6.2 (≈ 18.6 µM) | 25 (≈ 75 µM) | 0.39 (≈ 1.17 µM) | 3.1 (≈ 9.3 µM) | > 100 | > 100 µg/mL | > 100 | > 100 | 3.1 (≈ 9.3 µM) | – | 6.2 (≈ 18.6 µM) | > 100 | – | 1.5 (≈ 4.5 µM) |
| CCc1cc(C(=O)O)c(=O)n2ccc(N3CCC(N)C3)cc12.Cl (stereo not drawn) | 6.2 | 6.2 | 3.1 | 3.1 | 25 | 25 µg/mL | 50 | – | 3.1 | – | 3.1 | 25 | – | – |
| CCc1cc(C(=O)O)c(=O)n2cc(F)c(N3CCC(N)C3)c(C)c12 (stereo not drawn) | 0.1 (≈ 0.3 µM) | 0.2 (≈ 0.6 µM) | 0.02 (≈ 0.06 µM) | 0.01 (≈ 0.03 µM) | 0.78 (≈ 2.34 µM) | 0.78 µg/mL (≈ 2.34 µM) | 0.2 (≈ 0.6 µM) | 12.5 (≈ 37.5 µM) | 0.05 (≈ 0.15 µM) | 12.5 (≈ 37.5 µM) | 0.1 (≈ 0.3 µM) | 0.39 (≈ 1.17 µM) | – | 3.2 (≈ 9.6 µM) |
| Cc1c(NCCN)c(F)cn2c(=O)c(C(=O)O)cc(C3CC3)c12 | 1.56 (≈ 4.89 µM) | 0.78 (≈ 2.44 µM) | 0.2 (≈ 0.626 µM) | 0.2 (≈ 0.626 µM) | 12.5 (≈ 39.1 µM) | 6.2 µg/mL (≈ 19.4 µM) | 3.1 (≈ 9.71 µM) | > 100 | 0.39 (≈ 1.22 µM) | 50 (≈ 157 µM) | 0.78 (≈ 2.44 µM) | 6.2 (≈ 19.4 µM) | – | 0.8 (≈ 2.51 µM) |
| Cc1c(N2C[C@@H]3C[C@H]2CN3)c(F)cn2c(=O)c(C(=O)O)cc(C3CC3)c12 | 0.2 (≈ 0.56 µM) | 0.2 (≈ 0.56 µM) | 0.05 (≈ 0.14 µM) | 0.02 (≈ 0.056 µM) | 0.39 (≈ 1.09 µM) | 0.78 µg/mL (≈ 2.18 µM) | 0.2 (≈ 0.56 µM) | 6.2 (≈ 17.3 µM) | 0.1 (≈ 0.28 µM) | 6.2 (≈ 17.3 µM) | 0.1 (≈ 0.28 µM) | 0.2 (≈ 0.56 µM) | – | – |
| O=C(O)c1cc(-c2ccc(F)cc2F)c2nc(N3CCC(O)C3)c(F)cn2c1=O (stereo not drawn) | 0.05 (≈ 0.123 µM) | 0.78 (≈ 1.92 µM) | 0.05 (≈ 0.123 µM) | 0.1 (≈ 0.247 µM) | 6.2 (≈ 15.3 µM) | 6.2 µg/mL (≈ 15.3 µM) | 0.78 (≈ 1.92 µM) | 100 (≈ 247 µM) | 0.39 (≈ 0.962 µM) | > 100 | 0.05 (≈ 0.123 µM) | 0.78 (≈ 1.92 µM) | – | 0.5 (≈ 1.23 µM) |
| Cc1c(N2CCC(C)(N)C2)c(F)cn2c(=O)c(C(=O)O)cc(C3CC3)c12 (stereo not drawn) | 0.05 (≈ 0.139 µM) | 0.2 (≈ 0.556 µM) | 0.01 (≈ 0.0278 µM) | 0.01 (≈ 0.0278 µM) | 0.1 (≈ 0.278 µM) | 0.78 µg/mL (≈ 2.17 µM) | 0.1 (≈ 0.278 µM) | 1.56 (≈ 4.34 µM) | 0.05 (≈ 0.139 µM) | 6.2 (≈ 17.3 µM) | 0.02 (≈ 0.0556 µM) | 0.1 (≈ 0.278 µM) | – | – |
| O=C(O)c1cc(C2CC2)c2nc(N3CCNCC3)c(F)cn2c1=O | 1.56 (≈ 4.69 µM) | 0.39 (≈ 1.17 µM) | 0.05 (≈ 0.15 µM) | 0.05 (≈ 0.15 µM) | 12.5 (≈ 37.6 µM) | 12.5 µg/mL (≈ 37.6 µM) | 12.5 (≈ 37.6 µM) | 50 (≈ 150 µM) | 0.05 (≈ 0.15 µM) | 100 (≈ 301 µM) | 0.78 (≈ 2.35 µM) | 12.5 (≈ 37.6 µM) | – | 2 (≈ 6.02 µM) |
